Data published in the supplement of paper PMC13386468.

Experiments:
Test in all cases: IC50 for competition of protein binding to Kinobeads
Conditions in all cases: assay detail: Kinobeads competition in P. falciparum blood-stage lysate
UniProt Q8IE09 = target: UniProt Q8IE09
UniProt Q8I3I5 = target: UniProt Q8I3I5
UniProt Q8IEL1 = target: UniProt Q8IEL1
UniProt Q8ILT5 = target: UniProt Q8ILT5
UniProt Q8I323 = target: UniProt Q8I323
UniProt Q8I5B6 = target: UniProt Q8I5B6
UniProt Q8I3L4 = target: UniProt Q8I3L4
UniProt Q8IBC3 = target: UniProt Q8IBC3
UniProt Q8IJD0 = target: UniProt Q8IJD0
UniProt O97282 = target: UniProt O97282
UniProt Q8IIE7 = target: UniProt Q8IIE7
UniProt Q8ILI6 = target: UniProt Q8ILI6
UniProt Q8IES0 = target: UniProt Q8IES0
UniProt O77306 = target: UniProt O77306
UniProt Q8IIM5 = target: UniProt Q8IIM5
UniProt Q8I4R5 = target: UniProt Q8I4R5
UniProt Q8I4U5 = target: UniProt Q8I4U5
UniProt Q8I535 = target: UniProt Q8I535
UniProt Q8I603 = target: UniProt Q8I603
UniProt C0H4R8 = target: UniProt C0H4R8
UniProt Q8IJG6 = target: UniProt Q8IJG6
UniProt C6KTC6 = target: UniProt C6KTC6
UniProt Q8IBJ1 = target: UniProt Q8IBJ1
UniProt Q8IB66 = target: UniProt Q8IB66
UniProt Q8I3Y9 = target: UniProt Q8I3Y9
UniProt Q8I2U5 = target: UniProt Q8I2U5
UniProt Q8I3F0 = target: UniProt Q8I3F0
UniProt Q8IDR9 = target: UniProt Q8IDR9
UniProt Q9TY94 = target: UniProt Q9TY94
UniProt Q8I3R0 = target: UniProt Q8I3R0
UniProt Q8IM71 = target: UniProt Q8IM71
UniProt O97313 = target: UniProt O97313
UniProt Q8IE41 = target: UniProt Q8IE41
UniProt Q8IKV8 = target: UniProt Q8IKV8
UniProt O96278 = target: UniProt O96278
UniProt Q8IHZ9 = target: UniProt Q8IHZ9
UniProt Q8IHY0 = target: UniProt Q8IHY0
UniProt C6KT82 = target: UniProt C6KT82
UniProt Q8IB73 = target: UniProt Q8IB73
UniProt Q8I719 = target: UniProt Q8I719
UniProt Q8IM32 = target: UniProt Q8IM32
UniProt C0H570 = target: UniProt C0H570
UniProt Q8I488 = target: UniProt Q8I488
UniProt Q8I2G2 = target: UniProt Q8I2G2
UniProt P62344 = target: UniProt P62344
UniProt Q8IKS4 = target: UniProt Q8IKS4
UniProt Q8I2I2 = target: UniProt Q8I2I2
UniProt Q9U0I0 = target: UniProt Q9U0I0
UniProt Q8IM27 = target: UniProt Q8IM27
UniProt Q8I5V9 = target: UniProt Q8I5V9
UniProt Q8IDV1 = target: UniProt Q8IDV1
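Also: native unpurified kinases from lysate captured on beads bearing immobilized kinase inhibitors, with bead-bound kinases quantified by mass spectrometry across compound doses.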

Sequence of UniProt Q8IHZ9 (Q8IHZ9 whole entry): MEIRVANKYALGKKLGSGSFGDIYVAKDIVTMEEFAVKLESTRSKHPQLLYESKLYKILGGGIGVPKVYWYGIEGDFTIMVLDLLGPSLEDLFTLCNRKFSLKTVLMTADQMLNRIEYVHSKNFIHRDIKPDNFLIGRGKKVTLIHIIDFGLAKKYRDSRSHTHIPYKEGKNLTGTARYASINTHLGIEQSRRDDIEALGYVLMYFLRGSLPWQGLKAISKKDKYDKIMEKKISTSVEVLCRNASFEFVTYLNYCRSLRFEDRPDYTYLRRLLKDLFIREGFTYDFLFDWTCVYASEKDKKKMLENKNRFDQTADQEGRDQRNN
Sequence of UniProt Q8ILI6 (Q8ILI6 whole entry): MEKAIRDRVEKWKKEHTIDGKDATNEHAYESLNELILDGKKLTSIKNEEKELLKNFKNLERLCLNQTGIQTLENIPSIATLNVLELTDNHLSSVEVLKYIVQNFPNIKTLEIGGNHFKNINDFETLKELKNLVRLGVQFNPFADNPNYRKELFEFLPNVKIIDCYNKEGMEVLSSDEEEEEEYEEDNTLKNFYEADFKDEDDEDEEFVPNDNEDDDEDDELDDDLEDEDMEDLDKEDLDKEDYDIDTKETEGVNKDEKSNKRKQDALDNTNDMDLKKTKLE
Sequence of UniProt Q8I719 (Q8I719 whole entry, looked up): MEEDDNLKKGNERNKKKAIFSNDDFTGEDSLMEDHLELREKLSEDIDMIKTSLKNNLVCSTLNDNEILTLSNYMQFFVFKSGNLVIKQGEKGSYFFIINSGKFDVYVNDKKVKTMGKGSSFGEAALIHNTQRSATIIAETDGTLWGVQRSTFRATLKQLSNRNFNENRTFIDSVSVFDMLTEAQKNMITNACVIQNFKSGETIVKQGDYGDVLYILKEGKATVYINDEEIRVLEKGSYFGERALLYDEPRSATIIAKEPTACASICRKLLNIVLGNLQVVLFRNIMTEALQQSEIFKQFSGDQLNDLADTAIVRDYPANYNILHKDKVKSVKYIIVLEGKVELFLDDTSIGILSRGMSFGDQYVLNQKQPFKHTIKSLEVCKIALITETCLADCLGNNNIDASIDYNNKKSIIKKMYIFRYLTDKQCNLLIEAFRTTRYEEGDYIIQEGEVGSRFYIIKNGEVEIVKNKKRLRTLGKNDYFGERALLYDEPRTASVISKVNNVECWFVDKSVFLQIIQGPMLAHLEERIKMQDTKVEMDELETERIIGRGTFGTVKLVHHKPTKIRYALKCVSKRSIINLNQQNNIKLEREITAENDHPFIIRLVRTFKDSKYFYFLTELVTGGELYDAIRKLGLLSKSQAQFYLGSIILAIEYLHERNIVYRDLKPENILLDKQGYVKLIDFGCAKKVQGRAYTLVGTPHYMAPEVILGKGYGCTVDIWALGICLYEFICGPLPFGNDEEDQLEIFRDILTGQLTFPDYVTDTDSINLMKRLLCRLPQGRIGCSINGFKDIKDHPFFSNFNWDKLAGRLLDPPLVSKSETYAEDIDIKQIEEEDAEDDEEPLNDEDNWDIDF
Sequence of UniProt Q8ILT5 (Q8ILT5 whole entry): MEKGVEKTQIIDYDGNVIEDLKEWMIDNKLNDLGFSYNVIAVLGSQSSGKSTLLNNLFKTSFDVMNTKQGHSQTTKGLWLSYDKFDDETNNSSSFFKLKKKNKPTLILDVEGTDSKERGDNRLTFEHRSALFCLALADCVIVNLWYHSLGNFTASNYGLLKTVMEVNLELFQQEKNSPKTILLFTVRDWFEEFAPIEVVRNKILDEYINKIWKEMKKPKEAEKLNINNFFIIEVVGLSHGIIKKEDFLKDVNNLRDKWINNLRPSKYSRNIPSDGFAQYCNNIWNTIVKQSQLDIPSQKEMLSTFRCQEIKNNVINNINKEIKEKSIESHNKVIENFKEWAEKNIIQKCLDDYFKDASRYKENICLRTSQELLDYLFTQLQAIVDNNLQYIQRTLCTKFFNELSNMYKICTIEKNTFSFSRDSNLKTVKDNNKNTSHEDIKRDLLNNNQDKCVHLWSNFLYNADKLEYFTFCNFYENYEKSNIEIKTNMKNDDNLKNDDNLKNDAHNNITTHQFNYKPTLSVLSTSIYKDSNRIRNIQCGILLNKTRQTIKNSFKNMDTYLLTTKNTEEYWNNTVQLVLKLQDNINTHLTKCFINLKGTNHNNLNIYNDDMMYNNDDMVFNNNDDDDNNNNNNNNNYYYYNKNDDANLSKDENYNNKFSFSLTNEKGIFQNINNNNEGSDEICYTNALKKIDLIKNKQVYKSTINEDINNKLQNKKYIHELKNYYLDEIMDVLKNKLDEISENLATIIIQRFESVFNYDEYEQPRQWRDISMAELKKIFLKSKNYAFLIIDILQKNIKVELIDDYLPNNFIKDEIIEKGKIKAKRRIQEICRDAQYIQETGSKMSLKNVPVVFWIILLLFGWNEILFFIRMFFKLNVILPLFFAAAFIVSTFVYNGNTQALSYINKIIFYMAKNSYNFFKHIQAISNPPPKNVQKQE
Sequence of UniProt O97313 (O97313 whole entry): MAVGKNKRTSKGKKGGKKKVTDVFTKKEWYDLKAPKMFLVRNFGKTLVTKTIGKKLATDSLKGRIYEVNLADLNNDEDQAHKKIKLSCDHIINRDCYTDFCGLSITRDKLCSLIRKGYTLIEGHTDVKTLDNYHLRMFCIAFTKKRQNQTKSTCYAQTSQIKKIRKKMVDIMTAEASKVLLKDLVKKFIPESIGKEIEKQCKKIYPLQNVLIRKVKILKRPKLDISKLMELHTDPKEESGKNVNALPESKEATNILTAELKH
Sequence of UniProt P62344 (P62344 whole entry, looked up): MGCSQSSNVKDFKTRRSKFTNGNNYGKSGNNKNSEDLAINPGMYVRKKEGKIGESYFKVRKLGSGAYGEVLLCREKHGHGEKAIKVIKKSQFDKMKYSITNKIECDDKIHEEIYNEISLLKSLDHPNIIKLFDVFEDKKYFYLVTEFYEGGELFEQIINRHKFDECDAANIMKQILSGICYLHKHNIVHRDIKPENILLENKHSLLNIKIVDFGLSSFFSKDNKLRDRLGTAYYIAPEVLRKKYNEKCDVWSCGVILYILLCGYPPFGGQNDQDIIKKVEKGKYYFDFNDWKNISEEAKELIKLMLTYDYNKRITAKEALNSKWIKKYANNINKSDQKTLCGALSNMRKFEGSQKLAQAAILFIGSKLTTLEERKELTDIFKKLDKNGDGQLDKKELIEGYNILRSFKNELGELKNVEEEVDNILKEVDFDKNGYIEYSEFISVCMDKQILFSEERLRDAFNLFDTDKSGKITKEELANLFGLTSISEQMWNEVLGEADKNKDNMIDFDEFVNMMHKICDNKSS

For `O=c1[nH]c2ccc(Cl)cc2c(NC2CN3CCC2CC3)c1-c1nc2ccccc2[nH]1` (stereo unspecified) [CHIR-124], the IC50 (UniProt Q8IE09) was > 20 µM, the IC50 (UniProt Q8I3I5) was > 20 µM and the IC50 (UniProt Q8IEL1) was 2.9 µM. The IC50 (UniProt Q8ILT5) was > 20 µM, the IC50 (UniProt Q8I323) was > 20 µM and the IC50 (UniProt Q8I5B6) was > 20 µM. For the same molecule, the IC50 (UniProt Q8I3L4) was > 20 µM, the IC50 (UniProt Q8IBC3) was > 20 µM and the IC50 (UniProt Q8IJD0) was > 20 µM. For the same molecule, the IC50 (UniProt O97282) was > 20 µM, the IC50 (UniProt Q8IIE7) was 0.177 µM and the IC50 (UniProt Q8ILI6) was > 20 µM. For the same molecule, the IC50 (UniProt Q8IES0) was > 20 µM, the IC50 (UniProt O77306) was > 20 µM and the IC50 (UniProt Q8IIM5) was > 20 µM. The IC50 (UniProt Q8I4R5) was > 20 µM, the IC50 (UniProt Q8I4U5) was > 20 µM and the IC50 (UniProt Q8I535) was < 0.0823 µM. For the same molecule, the IC50 (UniProt Q8I603) was > 20 µM, the IC50 (UniProt C0H4R8) was 5.36 µM and the IC50 (UniProt Q8IJG6) was > 20 µM. The IC50 (UniProt C6KTC6) was > 20 µM, the IC50 (UniProt Q8IBJ1) was > 20 µM and the IC50 (UniProt Q8IB66) was > 20 µM. The IC50 (UniProt Q8I3Y9) was > 20 µM, the IC50 (UniProt Q8I2U5) was > 20 µM and the IC50 (UniProt Q8I3F0) was > 20 µM. The IC50 (UniProt Q8IDR9) was > 20 µM, the IC50 (UniProt Q9TY94) was > 20 µM and the IC50 (UniProt Q8I3R0) was > 20 µM. For the same molecule, the IC50 (UniProt Q8IM71) was > 20 µM, the IC50 (UniProt O97313) was > 20 µM and the IC50 (UniProt Q8IE41) was 0.375 µM. The IC50 (UniProt Q8IKV8) was > 20 µM, the IC50 (UniProt O96278) was > 20 µM and the IC50 (UniProt Q8IHZ9) was > 20 µM. For the same molecule, the IC50 (UniProt Q8IHY0) was > 20 µM, the IC50 (UniProt C6KT82) was > 20 µM and the IC50 (UniProt Q8IB73) was > 20 µM. The IC50 (UniProt Q8I719) was > 20 µM, the IC50 (UniProt Q8IM32) was > 20 µM and the IC50 (UniProt C0H570) was > 20 µM. For the same molecule, the IC50 (UniProt Q8I488) was > 20 µM, the IC50 (UniProt Q8I2G2) was > 20 µM and the IC50 (UniProt P62344) was < 0.0823 µM. The IC50 (UniProt Q8IKS4) was > 20 µM, the IC50 (UniProt Q8I2I2) was > 20 µM and the IC50 (UniProt Q9U0I0) was > 20 µM. For the same molecule, the IC50 (UniProt Q8IM27) was > 20 µM, the IC50 (UniProt Q8I5V9) was > 20 µM and the IC50 (UniProt Q8IDV1) was > 20 µM.
